From publication PMC4125160, “Neurotoxicity and Mode of Action of N, N-Diethyl-Meta-Toluamide (DEET)” (PLoS ONE, 2014)
Like-named read-outs stand apart in the source and are kept apart here.

What was measured:
[1] = test system: firefly light organ; test: In vivo assay for effects on firefly light organ; parameters: species or system Photinus pyralis
Description: Adult firefly beetles (Photinus sp.) were collected locally (Nashville, TN) and housed in well-ventilated chambers with tree leaves. The animals had free access to 10% sucrose solution. Chemicals were dissolved in absolute ethanol and 1 µL was topically applied directly to the ventral light organ with the use of a manual pipettor. Prior to DEET application, the beetles were immobilized with molten parafilm and were mounted on corrugated cardboard for the duration of the study. Due to the time required for bioactivation of CDM, insects were treated with 1 µL of CDM and were released back into the holding chamber for three hours. After three hours, they were mounted in the previously described manner and monitored for activation of the lantern. Photographs were captured with a handheld camera (Canon PowerShot SX110 IS). Pictures were captured within five minutes, four hours, and 10 minutes post application for DEET, CDM, and propoxur, respectively. DEET- and propoxur-treated insects were monitored for at least 1 hour post exposure to ensure the response was not slow acting. The original photographs were cropped and background shadows were enhanced to increase detail of the insect using Adobe Photoshop PS5 (Adobe Systems, San Jose, CA, USA). The color or brightness of the light organ was not manipulated in any way during post-processing of the image.

[2] = test system: acetylcholinesterase; test: AChE inhibition, Ellman assay, summary statements across enzymes; type: biochemical; conditions: concentrations up to 10 mM, all enzyme preparations
Source text: In vitro biochemical assays utilized five acetylcholinesterase (AChE) enzymes. Recombinant human AChE (hAChE) was purchased from a commercial source (lyophilized powder, Sigma C1682, St. Louis, MO, USA). Homogenates to prepare Anopheles gambiae AChE (AgAChE) were obtained from the wild type G3 strain and the resistant AKRON strain (BEI Resources; http://www.beiresources.org/). AKRON mosquitoes (from Benin and donated by M. Akogbeto) have both knockdown resistance (kdr) to pyrethroids (L1014F sodium channel mutation) and the G119S AChE mutation (ace-1R), which confers resistance to carbamates, [15]. Both strains were cultured in the Emerging Pathogens Institute, University of Florida, Gainesville, FL, USA from eggs provided by the Center for Disease Control, Atlanta, GA, USA. Homogenates were also used to prepare Aedes aegypti AChE (AeAChE) from mosquitoes provided by the CMAVE, USDA-ARS, Gainesville, FL, USA; Musca domestica AChE (MdAChE) from flies cultured in the Department of Entomology and Nematology, Medical Entomology Laboratory, University of Florida, Gainesville, FL, USA); and Drosophila melanogaster AChE (DmAChE) from flies (Oregon-R strain) cultured in the Emerging Pathogens Institute, University of Florida, Gainesville, FL, USA. Homogenate enzymes were prepared from groups of ten non-blood fed adult female mosquitoes, five whole bodied Drosophila, or three Musca heads homogenized in 1 mL of ice-cold sodium phosphate buffer (0.1 M sodium phosphate, pH 7.8) with an electric motor driven glass tissue homogenizer. The homogenate was centrifuged at 5000×g using a Sorvall Fresco refrigerated centrifuge at 4 °C for 5 minutes. […]
Inhibition of AChE was determined using the Ellman assay and was based on the method outlined in Carlier et al.. […] Changes in absorbance were recorded by a DYNEX Triad spectrophotometer (DYNEX Technologies, Chantilly, VA, USA) at 405 nm. Enzyme concentrations used were within the linear range, therefore eliminating the need for protein quantification.

[3] = test system: rat Nav 1.4 channel; parameters: method as in ref 12 = [12]; 12 Scior T , Martinez-Morales E , Cruz S , Salinas-Stefanon E ( 2009 ) In silico modeling of toluene binding site in the pore of voltage-gate sodium channel . J Receptor Ligand Channel Res 2 : 1 – 9 .; conditions: in vitro ref 12; cited from earlier work
[4] = target: Musca domestica AChE (MdAChE) (Musca domestica, UniProt Q7YWJ9); test: AChE inhibition, Ellman assay; type: biochemical; conditions: mean, n = 3; read-out: IC50 (95% CI)
Source text: (§1) In vitro biochemical assays utilized five acetylcholinesterase (AChE) enzymes. Recombinant human AChE (hAChE) was purchased from a commercial source (lyophilized powder, Sigma C1682, St. Louis, MO, USA). Homogenates to prepare Anopheles gambiae AChE (AgAChE) were obtained from the wild type G3 strain and the resistant AKRON strain (BEI Resources; http://www.beiresources.org/). AKRON mosquitoes (from Benin and donated by M. Akogbeto) have both knockdown resistance (kdr) to pyrethroids (L1014F sodium channel mutation) and the G119S AChE mutation (ace-1R), which confers resistance to carbamates, [15]. Both strains were cultured in the Emerging Pathogens Institute, University of Florida, Gainesville, FL, USA from eggs provided by the Center for Disease Control, Atlanta, GA, USA. Homogenates were also used to prepare Aedes aegypti AChE (AeAChE) from mosquitoes provided by the CMAVE, USDA-ARS, Gainesville, FL, USA; Musca domestica AChE (MdAChE) from flies cultured in the Department of Entomology and Nematology, Medical Entomology Laboratory, University of Florida, Gainesville, FL, USA); and Drosophila melanogaster AChE (DmAChE) from flies (Oregon-R strain) cultured in the Emerging Pathogens Institute, University of Florida, Gainesville, FL, USA. Homogenate enzymes were prepared from groups of ten non-blood fed adult female mosquitoes, five whole bodied Drosophila, or three Musca heads homogenized in 1 mL of ice-cold sodium phosphate buffer (0.1 M sodium phosphate, pH 7.8) with an electric motor driven glass tissue homogenizer. The homogenate was centrifuged at 5000×g using a Sorvall Fresco refrigerated centrifuge at 4 °C for 5 minutes. The supernatant was used as the enzyme source, and all enzyme preparations contained 0.3% (v/v) triton X-100 and 1 mg/ml BSA. Prior to use, the recombinant human enzyme was diluted 500-fold into sodium phosphate buffer containing triton X-100 and 1 mg/ml BSA.
(§2) Inhibition of AChE was determined using the Ellman assay and was based on the method outlined in Carlier et al.. Briefly, enzyme solution (10 µL) was added to each well of a 96-well micro assay plate, along with 20 µL of inhibitor in DMSO/saline suspension, and 150 µL of sodium phosphate buffer. Final concentration of DMSO was 0.1% in all incubations. The plate was incubated at 25 °C for ten minutes. Ellman assay reagents, acetylthiocholine iodide (0.4 mM, final concentration) and 5,5′-dithiobis-(2-nitro)benzoic acid (0.3 mM, final concentration), were prepared fresh and 20 µL was added to the enzyme to initiate the reaction. Changes in absorbance were recorded by a DYNEX Triad spectrophotometer (DYNEX Technologies, Chantilly, VA, USA) at 405 nm. Enzyme concentrations used were within the linear range, therefore eliminating the need for protein quantification.

[5] = target: T1, AKRON AgAChE (G119S AChE mutation) (Anopheles gambiae, UniProt Q869C3, G280S); test: AChE inhibition, Ellman assay; type: biochemical
T1 construct: Homogenate enzymes were prepared from groups of ten non-blood fed adult female mosquitoes; from tissue; host or cells: whole adult female mosquitoes, AKRON strain, supernatant of homogenate
Source text: as §1, §2

[6] = target: T2, Recombinant human AChE (hAChE) (Homo sapiens, UniProt P22303); test: AChE inhibition, Ellman assay; type: biochemical; conditions: mean, n = 3; read-out: IC50 (95% CI)
T2 construct: purchased Sigma C1682
Source text: as §1, §2

[7] = test system: housefly larval central nervous system; test: Neurophysiological recordings of CNS nerve discharge in housefly larvae; conditions: Musca domestica; transected CNS; value (95% CI); read-out: EC50, excitation of nerve firing
[8] = target: T3, Drosophila melanogaster AChE (DmAChE) (Drosophila melanogaster, UniProt P07140); test: AChE inhibition, Ellman assay; type: biochemical; conditions: mean, n = 3; read-out: IC50 (95% CI)
T3 construct: five whole bodied Drosophila, or three Musca heads homogenized; from tissue; host or cells: whole Drosophila (Oregon-R), supernatant of homogenate
Source text: as §1
as §2, with “reaction.” for “reaction. Changes in absorbance were recorded by a DYNEX Triad spectrophotometer (DYNEX Technologies, Chantilly, VA, USA) at 405 nm. Enzyme concentrations used were within the linear range, therefore eliminating the need for protein quantification.”

[9] = target: T4, Anopheles gambiae AChE (AgAChE), wild type G3 strain (Anopheles gambiae, UniProt Q869C3); test: AChE inhibition, Ellman assay; type: biochemical
T4 construct: Homogenate enzymes were prepared from groups of ten non-blood fed adult female mosquitoes; from tissue; host or cells: whole adult female mosquitoes, G3 strain, supernatant of homogenate
Source text: as §1
as §2, with “reaction.” for “reaction. Changes in absorbance were recorded by a DYNEX Triad spectrophotometer (DYNEX Technologies, Chantilly, VA, USA) at 405 nm. Enzyme concentrations used were within the linear range, therefore eliminating the need for protein quantification.”

[10] = target: T5, Aedes aegypti AChE (AeAChE) (Aedes aegypti, UniProt Q6A2E2); test: AChE inhibition, Ellman assay; type: biochemical
T5 construct: Homogenate enzymes were prepared from groups of ten non-blood fed adult female mosquitoes; from tissue; host or cells: whole adult female mosquitoes, supernatant of homogenate
Source text: as §1
as §2, with “reaction.” for “reaction. Changes in absorbance were recorded by a DYNEX Triad spectrophotometer (DYNEX Technologies, Chantilly, VA, USA) at 405 nm. Enzyme concentrations used were within the linear range, therefore eliminating the need for protein quantification.”

[11] = test system: neuromuscular junction of third instar Musca domestica larvae; test: Neuromuscular junction recordings of evoked EPSP in housefly larvae; conditions: toluene at 5 mM
Description: Neuromuscular recordings of the evoked excitatory postsynaptic potential (EPSP) were performed on third instar housefly larvae, essentially as described previously. In short, the maggot was immobilized with pins, and the nervous and musculature systems were exposed. The preparation was then bathed in saline containing: 140 mM NaCl, 0.75 mM CaCl2, 5 mM KCl, 4 mM MgCl2, 5 mM NaHCO3, and 5 mM HEPES (pH = 7.25). The nerves were severed from the base of the CNS, which was removed, and a lateral nerve trunk innervating the longitudinal muscles was drawn into a suction electrode filled with saline. Stimuli were applied at 1 volt and of 0.2 sec duration to elicit a contraction from the longitudinal muscles. The stimulated muscle was then impaled with a recording glass capillary microelectrode filled with 1 M KCl to record effects on the evoked EPSP and membrane potential. Signals from all recordings were amplified and digitized with the use of the MacLab. Chemicals were applied to the preparation directly by hand pipetting 150 µL of solution into the bath volume of 150 µL.

[12] = test system: housefly larval central nervous system; test: Neurophysiological recordings of CNS nerve discharge in housefly larvae; parameters: species or system Musca domestica; conditions: for EC50: Musca domestica
Description: Neurophysiological recordings were performed on the central and peripheral nervous systems of larval Musca domestica. Glass pipette electrodes were pulled from borosilicate glass capillaries on a P-1000 Flaming/Brown micropipette puller (Sutter Instrument, Novato CA, USA). For CNS recordings, it was first excised from the larvae and placed in a separate dish with physiological saline (200 µL) containing: 157 mM NaCl, 3 mM KCl, 2 mM CaCl2, and 4 mM HEPES, pH = 7.25. The CNS was manually transected posterior to the cerebral lobes to disrupt the blood-brain barrier and enhance chemical penetration. Any convenient peripheral nerve trunks were pulled into a recording suction electrode. Amplification and digitization of descending electrical activity originating from the CNS were converted on-line into a rate plot, expressed in Hz (MacLab analog to digital converter hardware and LabChart 7 software, ADInstruments, Colorado Springs, CO, USA). […] After a baseline was established, the CNS preparation was directly exposed to test compound by adding 200 µL of solution to the bath containing 200 µL of saline. The final concentration of solvent in the bath was 0.1% DMSO. Each concentration was recorded for 3–5 min prior to the addition of the next drug concentration. […] Each drug concentration was replicated 3-5 times.

[13] = test system: octopamine receptors of Sf21 cells; test: Calcium fluorescence assay in Sf21 cells; type: cell-based
Description: The Sf21 insect cell line was obtained from a commercial supplier (Invitrogen, Carlsbad, CA, USA) and maintained in log phase culture in Trichoplusia ni Medium-Formulation Hink (TNM-FH) from Sigma-Aldrich (St. Louis, MO, USA), supplemented with 10% fetal bovine serum and 100 U/ml penicillin and streptomycin (Sigma-Aldrich). Cells were cultured in a non-humidified environment and maintained at 27°C. Sf21 cells were passaged every 3–5 days according to manufacturer's instructions, and maintained for about 30 passes before being replaced by fresh cells.
Sf21 cells were plated into 96-well black-wall, clear bottom plates 24 h before calcium fluorescence assay. […] The octopamine receptor antagonist phentolamine (100 µM) was co-incubated with cells for 1 h before drug challenge. Phentolamine, octopamine, and DEET were dissolved in water, while propoxur was dissolved in 100% DMSO to make a stock solution, and in the assay, DMSO was kept to 0.1%. The experiment was repeated in triplicate with different plates of cells to obtain means and SEMs for each experimental condition.

[14] = mean, n = 3, read-out: IC50 (95% CI)

## Cc1cc(Cl)ccc1N=CN(C)C [CDM, chlordimeform]
[1]; 1 µg topically on light organ
  lantern illumination: incomplete activation of the light organ
[1]; 5 µg
  duration of glow of the entire lantern: approximately four
[1]; 5 µg topically on light organ
  lantern illumination: bright, constant glow of the entire lantern

## Cc1ccccc1 [Toluene, toluene]
[2]
  AChE inhibition in words: inactive
[3]
  concentration blocking channels: 3 mM
[4]
  IC50: > 10 mM
[5]
  IC50: > 10 mM
[6]
  IC50: > 10 mM
[7]
  EC50: 1 mM
[8]
  IC50: > 10 mM
[9]
  IC50: > 10 mM
[10]
  IC50: > 10 mM
[11]
  effect on evoked EPSP in words: excitatory

## NCC(O)c1ccc(O)cc1 (centres unmarked) [Octopamine, octopamine]
[12]; Fig. 3B, read-out: excitatory EC50
  EC50: 0.11 mM
[13]; 100 µM, over control cells
  increase in calcium fluorescence: ca. 50%

## Cc1ccc(N(CC2=NCCN2)c2cccc(O)c2)cc1 [phentolamine]
[12]; 100 µM phentolamine, DEET up to 500 µM
  block of DEET-mediated neuroexcitation: completely blocked
[12]; 100 µM phentolamine, octopamine up to 3 mM
  block of octopamine-mediated neuroexcitation: completely blocked
[12]; 100 µM phentolamine, propoxur 1 µM, not statistically significant
  decline of maximal firing compared to propoxur alone: 21%
[12]; 100 µM phentolamine, propoxur below 1 µM
  effect on neuroexcitation by propoxur: no effect
[12]; phentolamine
  effect on 4-AP mediated neuroexcitation: no effect
[13]; 100 µM phentolamine pre-exposure 1 h
  effect on DEET- and octopamine-mediated activation of calcium fluorescence: abolished

## CCN(CC)CC(=O)Nc1c(C)cccc1C [Lidocaine, lidocaine]
[4]
  IC50: 4.9 mM
[5]
  IC50: > 10 mM
[8]
  IC50: 9.6 mM
[9]; [14]
  IC50: > 10 mM
[10]; [14]
  IC50: > 10 mM
[11]
  effect on evoked EPSP in words: antagonist

## Nc1ccncc1 [4-AP, 4-aminopyridine]
[12]
  increase of maximal firing frequency above control levels: 6 fold
[12]; Fig. 3D, firing declined at concentrations >1 mM, read-out: EC50, neuroexcitation
  EC50: 0.013 mM
